Source: PMC10817917, “Alkyl deoxyglycoside-polymyxin combinations against critical priority carbapenem-resistant gram-negative bacteria” (Scientific Reports, 2024)
Like-named read-outs stand apart in the source and are kept apart here.

Key:
P. aeruginosa CQ4924 = test: Broth microdilution MIC, glycosides with or without polymyxins; type: cell-based, Pseudomonas aeruginosa
A. baumannii CQ4322 = test: Broth microdilution MIC/MBC, glycosides with or without polymyxins; type: cell-based, Acinetobacter baumannii; details: for MIC: Acinetobacter baumannii, CQ4322
E. coli NCTC 13846 = test: as above; type: cell-based, Escherichia coli; details: strain B
K. pneumoniae CQ1942 = test: Broth microdilution MIC, glycosides with or without polymyxins; type: cell-based, Klebsiella pneumoniae; details: for MIC: Klebsiella pneumoniae, CQ1942
E. cloacae CQ1941 = test: Broth microdilution MIC/MBC, glycosides with or without polymyxins; type: cell-based; details: for MIC: Enterobacter cloacae, CQ1941
[1] = combination with the lowest FICI
[2] = compound + colistin, lowest FICI
[3] = alone, read-out: MICA (MIC of each compound individually)

MICB(A + B) (MIC of colistin in combination with compound) (P. aeruginosa CQ4924; [1]): 0.5 µg/mL | MIC (A. baumannii CQ4322; agent alone, no adjuvant (polymyxin conc. 0), strain G, read-out: MIC): > 100 µg/mL | MIC (A. baumannii CQ4322; [3]): > 100 µg/mL | MIC of colistin in combination with the compound (A. baumannii CQ4322; Cpd conc. 0.4 μg/mL, strain G): 0.5 µg/mL | MIC of colistin in combination with the compound (A. baumannii CQ4322; Cpd conc. 0.8 μg/mL, strain G): 0.5 µg/mL | MIC of colistin in combination with the compound (A. baumannii CQ4322; Cpd conc. 3.125 μg/mL, strain G): 0.5 µg/mL | MIC of colistin in combination with the compound (A. baumannii CQ4322; Cpd conc. 6.25 μg/mL, strain G): 0.25 µg/mL | MIC of colistin in combination with the compound (A. baumannii CQ4322; Cpd conc. 12.5 μg/mL, strain G): 0.25 µg/mL | MIC of colistin in combination with the compound (A. baumannii CQ4322; Cpd conc. […], strain G): 0.5 µg/mL | MIC of compound in combination with PMB (A. baumannii CQ4322; PMB 0.25 μg/mL, strain G): > 100 µg/mL | MIC of compound in combination with PMB (A. baumannii CQ4322; PMB 0.5 μg/mL, strain G): 0.8 µg/mL | MIC of compound in combination with colistin (A. baumannii CQ4322; colistin 0.06 μg/mL, strain G): > 100 µg/mL | MIC of compound in combination with colistin (A. baumannii CQ4322; colistin 0.125 μg/mL, strain G): > 100 µg/mL | MIC of compound in combination with colistin (A. baumannii CQ4322; colistin 0.25 μg/mL, strain G): 6.3 µg/mL | MIC of compound in combination with colistin (A. baumannii CQ4322; colistin 0.5 μg/mL, strain G): ≤ 0.1 µg/mL | MICA(A + B) (MIC of compound in combination with colistin) (A. baumannii CQ4322; [1]): 6.25 µg/mL | MICB(A + B) (MIC of colistin in combination with compound) (A. baumannii CQ4322; [1]): 0.25 µg/mL | MIC of colistin in combination with the compound (E. coli NCTC 13846; Cpd conc. 0.4 μg/mL): > 0.5 µg/mL | MIC of colistin in combination with the compound (E. coli NCTC 13846; Cpd conc. 0.8 μg/mL): > 0.5 µg/mL | MIC of colistin in combination with the compound (E. coli NCTC 13846; Cpd conc. 3.125 μg/mL): > 0.5 µg/mL | MIC of colistin in combination with the compound (E. coli NCTC 13846; Cpd conc. 6.25 μg/mL): > 0.5 µg/mL | MIC of colistin in combination with the compound (E. coli NCTC 13846; Cpd conc. 12.5 μg/mL): > 0.5 µg/mL | MIC of colistin in combination with the compound (E. coli NCTC 13846; Cpd conc. […]): > 0.5 µg/mL | MIC (E. coli NCTC 13846; Escherichia coli, NCTC13846, agent alone, no adjuvant (polymyxin conc. 0), read-out: MIC): > 100 µg/mL | MIC of compound in combination with PMB (E. coli NCTC 13846; PMB 0.25 μg/mL): > 100 µg/mL | MIC of compound in combination with PMB (E. coli NCTC 13846; PMB 0.5 μg/mL): > 100 µg/mL | MIC of compound in combination with colistin (E. coli NCTC 13846; colistin 0.06 μg/mL): > 100 µg/mL | MIC of compound in combination with colistin (E. coli NCTC 13846; colistin 0.125 μg/mL): > 100 µg/mL | MIC of compound in combination with colistin (E. coli NCTC 13846; colistin 0.25 μg/mL): > 100 µg/mL | MIC of compound in combination with colistin (E. coli NCTC 13846; colistin 0.5 μg/mL): > 100 µg/mL | MIC of colistin in combination with the compound (K. pneumoniae CQ1942; Cpd conc. 0.4 μg/mL, strain E): 0.5 µg/mL | MIC of colistin in combination with the compound (K. pneumoniae CQ1942; Cpd conc. 0.8 μg/mL, strain E): 0.5 µg/mL | MIC of colistin in combination with the compound (K. pneumoniae CQ1942; Cpd conc. 3.125 μg/mL, strain E): 0.25 µg/mL | MIC of colistin in combination with the compound (K. pneumoniae CQ1942; Cpd conc. 6.25 μg/mL, strain E): 0.25 µg/mL | MIC of colistin in combination with the compound (K. pneumoniae CQ1942; Cpd conc. 12.5 μg/mL, strain E): 0.25 µg/mL | MIC of colistin in combination with the compound (K. pneumoniae CQ1942; Cpd conc. […], strain E): 0.5 µg/mL | MIC (K. pneumoniae CQ1942; agent alone, no adjuvant (polymyxin conc. 0), strain E, read-out: MIC): > 100 µg/mL | MIC (K. pneumoniae CQ1942; [3]): > 100 µg/mL | MIC of compound in combination with PMB (K. pneumoniae CQ1942; PMB 0.25 μg/mL, strain E): > 100 µg/mL | MIC of compound in combination with PMB (K. pneumoniae CQ1942; PMB 0.5 μg/mL, strain E): ≤ 0.1 µg/mL | MIC of compound in combination with colistin (K. pneumoniae CQ1942; colistin 0.06 μg/mL, strain E): > 100 µg/mL | MIC of compound in combination with colistin (K. pneumoniae CQ1942; colistin 0.125 μg/mL, strain E): > 100 µg/mL | MIC of compound in combination with colistin (K. pneumoniae CQ1942; colistin 0.25 μg/mL, strain E): 3.1 µg/mL | MIC of compound in combination with colistin (K. pneumoniae CQ1942; colistin 0.5 μg/mL, strain E): ≤ 0.1 µg/mL | MICA(A + B) (MIC of compound in combination with colistin) (K. pneumoniae CQ1942; [1]): 3.125 µg/mL | MICB(A + B) (MIC of colistin in combination with compound) (K. pneumoniae CQ1942; [1]): 0.25 µg/mL | MIC of colistin in combination with the compound (E. cloacae CQ1941; Cpd conc. 0.4 μg/mL, strain D): 0.5 µg/mL | MIC of colistin in combination with the compound (E. cloacae CQ1941; Cpd conc. 0.8 μg/mL, strain D): 0.5 µg/mL | MIC of colistin in combination with the compound (E. cloacae CQ1941; Cpd conc. 3.125 μg/mL, strain D): 0.25 µg/mL | MIC of colistin in combination with the compound (E. cloacae CQ1941; Cpd conc. 6.25 μg/mL, strain D): 0.25 µg/mL | MIC of colistin in combination with the compound (E. cloacae CQ1941; Cpd conc. 12.5 μg/mL, strain D): 0.25 µg/mL | MIC of colistin in combination with the compound (E. cloacae CQ1941; Cpd conc. […], strain D): 0.25 µg/mL | MIC (E. cloacae CQ1941; agent alone, no adjuvant (polymyxin conc. 0), strain D, read-out: MIC): > 100 µg/mL | MIC (E. cloacae CQ1941; [3]): > 100 µg/mL | MIC of compound in combination with PMB (E. cloacae CQ1941; PMB 0.5 μg/mL, strain D): ≤ 0.1 µg/mL | MIC of compound in combination with colistin (E. cloacae CQ1941; colistin 0.06 μg/mL, strain D): > 100 µg/mL | MIC of compound in combination with colistin (E. cloacae CQ1941; colistin 0.125 μg/mL, strain D): > 100 µg/mL | MIC of compound in combination with colistin (E. cloacae CQ1941; colistin 0.25 μg/mL, strain D): 1.6 µg/mL | MIC of compound in combination with colistin (E. cloacae CQ1941; colistin 0.5 μg/mL, strain D): ≤ 0.1 µg/mL | MICA(A + B) (MIC of compound in combination with colistin) (E. cloacae CQ1941; [1]): 1.6 µg/mL | MICB(A + B) (MIC of colistin in combination with compound) (E. cloacae CQ1941; [1]): 0.25 µg/mL
Compound: CCCCCCCCCCCCO[C@H]1C[C@H](O)[C@@H](O)[C@H](C)O1 [Compound 3, dodecyl 2,6-dideoxy-α-L-arabino-hexopyranoside]
Interpretation (of FICI) (P. aeruginosa CQ4924; compound + colistin): Additive (from 0.5 to 1.0 were additive) | FICI (P. aeruginosa CQ4924; [2]): 0.52 | Interpretation (of FICI) (A. baumannii CQ4322; compound + colistin): Additive (from 0.5 to 1.0 were additive) | FICI (A. baumannii CQ4322; [2]): 0.53 | Interpretation (of FICI) (K. pneumoniae CQ1942; compound + colistin): Additive (from 0.5 to 1.0 were additive) | FICI (K. pneumoniae CQ1942; [2]): 0.52 | Interpretation (of FICI) (E. cloacae CQ1941; compound + colistin): Additive (from 0.5 to 1.0 were additive) | FICI (E. cloacae CQ1941; [2]): 0.51
